Assay results from patent US20130303487A1, “Compositions Comprising Zoledronic Acid or Related Compounds for Relieving Inflammatory Pain and Related Conditions” (priority 2012, published 2013).
Where two headings read alike, the source gives them in different places.

Columns and labels:
[1] = test system: inflammatory pain (mechanical hyperalgesia); type: in vivo, Sprague-Dawley rats
Procedure: The effect of orally administered zoledronic acid on inflammatory pain was examined using the rat complete Freund's adjuvant (CFA) model. Inflammatory pain was induced by injection of 100% CFA in a 75 μL volume into the left hind paws of Sprague-Dawley rats on day 0, followed by assessments on days 1-3. Animals were orally administered vehicle (control), zoledronic acid 18 mg/m^2 (or 3 mg/kg), zoledronic acid 120 mg/m^2 (or 20 mg/kg), or zoledronic acid 900 mg/m^2 (or 150 mg/kg) daily on days 1-3. Drug was dissolved in distilled water and prepared fresh daily. Animals were fasted prior to dosing. Under current FDA guidelines for extrapolating starting dosages from animals to humans, dosages expressed in mg/m^2 are considered equivalent between mammalian species. Thus, for example, 18 mg/m^2 in a rat is considered equivalent to 18 mg/m^2 in a human being, while 3 mg/kg in a rat may not be equivalent to 3 mg/kg in a human being.
Values for inflammatory pain (mechanical hyperalgesia) in the vehicle and drug-treated animals were obtained on day 0 prior to CFA injection, and at baseline and post-treatment on days 1-3. Pain was assessed using a digital Randall-Selitto device (dRS; IITC Life Sciences, Woodland Hills, Calif.). Animals were placed in a restraint sling that suspended the animal, leaving the hind limbs available for testing. Paw compression threshold was measured by applying increasing pressure to the plantar surface of the hind paw with a dome-shaped tip placed between the 3rd and 4th metatarsus. Pressure was applied gradually over approximately 10 seconds. Measurements were taken from the first observed nocifensive behavior of vocalization, struggle or withdrawal. A cut-off value of 300 g was used to prevent injury to the animal.
Reversal of inflammatory pain was calculated according to the formula:
% reversal=(Post-treatment−Post-CFA baseline)/(Pre-CFA baseline−Post-CFA baseline)×100.
The experiment was carried out using 9-10 animals per group.

[2] = test system: complex regional pain syndrome (CRPS); experiment: rat tibia fracture model of complex regional pain syndrome (CRPS): von Frey, weight bearing, edema, warmth; type: in vivo; settings: oral 18 mg/m^2/day (3 mg/kg/day) for 28 days
Procedure: The effect of orally administered zoledronic acid was examined in the rat tibia fracture model of complex regional pain syndrome (CRPS). CRPS was induced in the rats by fracturing the right distal tibias of the animals and casting the fractured hindpaws for 4 weeks, as described in Guo T Z et al. (Pain. 2004; 108:95-107).
Animals were orally administered either vehicle (control) or zoledronic acid, in a dosage of 18 mg/m^2/day (3 mg/kg/day) for 28 days, starting on the day of fracture and casting. Drug was dissolved in distilled water and administered by gavage. Animals were fasted for 4 hours before and 2 hours after dosing. At the end of the 28-day period, casts were removed, and on the following day, the rats were tested for hindpaw pain, edema, and warmth.
Pain was assessed by measuring hyperalgesia, and weight bearing. […]
An incapacitance device (IITC Inc. Life Science, Woodland, Calif., USA) was used to measure hindpaw weight bearing, a postural effect of pain. […] Eight readings (excluding the highest and lowest ones) were averaged to calculate the bilateral hindpaw weight-bearing values. Weight bearing data were analyzed as the ratio between right (fracture) and left hindpaw weight bearing values ((2R/(R+L))×100%). […]
The temperature of the hindpaw was measured using a fine wire thermocouple (Omega, Stanford, Conn., USA) applied to the paw skin. […]

O=P(O)(O)C(O)(Cn1ccnc1)P(=O)(O)O [zoledronic acid]
paw compression thresholds versus vehicle ([1]; oral 18 mg/m^2, entire measurement period after 30 minutes from start of treatment): higher than for vehicle | paw compression thresholds versus vehicle ([1]; oral 120 mg/m^2 (20 mg/kg), all time points): approximately equal or inferior to vehicle | toxicity ([1]; oral 900 mg/m^2 (150 mg/kg) daily days 1-3, two days after cessation of dosing): significant toxicity necessitating euthanization of all the animals in this group | paw compression thresholds versus vehicle ([1]; oral 900 mg/m^2, day three): greater than for vehicle | paw compression thresholds versus vehicle ([1]; two higher doses (120 and 900 mg/m^2), first two days of dosing): lower than vehicle | hindlimb weight bearing on fracture hindlimb [2]: 86 % of normal
